What is called IC50 is the concentration at which inhibition is half-maximal.

Assay [1] deals with T1, ACL (Homo sapiens (Human), UniProt P53396). The experiment in a line: ADP-Glo Assay. (In general: ADP-Glo turns the ADP formed in a reaction into a luminescent signal.)
Target sequence in this assay (P53396 other isoform, or with tags, fused parts or gaps isoform P53396-2): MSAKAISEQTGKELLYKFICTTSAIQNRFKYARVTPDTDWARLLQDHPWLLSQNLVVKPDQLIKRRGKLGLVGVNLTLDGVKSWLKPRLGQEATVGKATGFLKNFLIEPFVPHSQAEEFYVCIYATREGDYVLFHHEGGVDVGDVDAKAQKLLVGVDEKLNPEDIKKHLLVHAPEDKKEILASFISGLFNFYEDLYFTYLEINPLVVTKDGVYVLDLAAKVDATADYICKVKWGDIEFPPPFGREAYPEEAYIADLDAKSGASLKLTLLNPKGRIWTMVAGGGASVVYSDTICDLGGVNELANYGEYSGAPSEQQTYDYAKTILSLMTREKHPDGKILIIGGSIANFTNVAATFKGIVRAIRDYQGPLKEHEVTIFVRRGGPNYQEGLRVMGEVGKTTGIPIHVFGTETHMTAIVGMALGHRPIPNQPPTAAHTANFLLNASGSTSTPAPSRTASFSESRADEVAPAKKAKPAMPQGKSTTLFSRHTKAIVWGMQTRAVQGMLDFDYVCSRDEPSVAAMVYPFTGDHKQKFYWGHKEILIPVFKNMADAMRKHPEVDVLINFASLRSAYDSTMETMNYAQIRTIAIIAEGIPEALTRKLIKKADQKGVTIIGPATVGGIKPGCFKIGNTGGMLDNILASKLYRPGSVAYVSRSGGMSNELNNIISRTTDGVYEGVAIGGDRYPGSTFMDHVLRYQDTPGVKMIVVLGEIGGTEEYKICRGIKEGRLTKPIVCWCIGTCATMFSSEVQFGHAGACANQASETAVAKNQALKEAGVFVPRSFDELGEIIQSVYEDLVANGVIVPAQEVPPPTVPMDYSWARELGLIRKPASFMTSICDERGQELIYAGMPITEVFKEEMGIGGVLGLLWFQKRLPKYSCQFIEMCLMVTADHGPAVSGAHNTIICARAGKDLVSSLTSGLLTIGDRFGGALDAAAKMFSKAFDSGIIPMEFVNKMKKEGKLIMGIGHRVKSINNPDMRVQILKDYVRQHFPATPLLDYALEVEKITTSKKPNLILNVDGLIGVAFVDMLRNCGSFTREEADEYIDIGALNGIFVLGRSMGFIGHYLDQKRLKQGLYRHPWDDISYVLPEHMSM
For assay [2], the target named is T1, ACL. Briefly: ACLY-MDH Coupled Assay.
Target sequence in this assay (P53396 whole entry, species assumed): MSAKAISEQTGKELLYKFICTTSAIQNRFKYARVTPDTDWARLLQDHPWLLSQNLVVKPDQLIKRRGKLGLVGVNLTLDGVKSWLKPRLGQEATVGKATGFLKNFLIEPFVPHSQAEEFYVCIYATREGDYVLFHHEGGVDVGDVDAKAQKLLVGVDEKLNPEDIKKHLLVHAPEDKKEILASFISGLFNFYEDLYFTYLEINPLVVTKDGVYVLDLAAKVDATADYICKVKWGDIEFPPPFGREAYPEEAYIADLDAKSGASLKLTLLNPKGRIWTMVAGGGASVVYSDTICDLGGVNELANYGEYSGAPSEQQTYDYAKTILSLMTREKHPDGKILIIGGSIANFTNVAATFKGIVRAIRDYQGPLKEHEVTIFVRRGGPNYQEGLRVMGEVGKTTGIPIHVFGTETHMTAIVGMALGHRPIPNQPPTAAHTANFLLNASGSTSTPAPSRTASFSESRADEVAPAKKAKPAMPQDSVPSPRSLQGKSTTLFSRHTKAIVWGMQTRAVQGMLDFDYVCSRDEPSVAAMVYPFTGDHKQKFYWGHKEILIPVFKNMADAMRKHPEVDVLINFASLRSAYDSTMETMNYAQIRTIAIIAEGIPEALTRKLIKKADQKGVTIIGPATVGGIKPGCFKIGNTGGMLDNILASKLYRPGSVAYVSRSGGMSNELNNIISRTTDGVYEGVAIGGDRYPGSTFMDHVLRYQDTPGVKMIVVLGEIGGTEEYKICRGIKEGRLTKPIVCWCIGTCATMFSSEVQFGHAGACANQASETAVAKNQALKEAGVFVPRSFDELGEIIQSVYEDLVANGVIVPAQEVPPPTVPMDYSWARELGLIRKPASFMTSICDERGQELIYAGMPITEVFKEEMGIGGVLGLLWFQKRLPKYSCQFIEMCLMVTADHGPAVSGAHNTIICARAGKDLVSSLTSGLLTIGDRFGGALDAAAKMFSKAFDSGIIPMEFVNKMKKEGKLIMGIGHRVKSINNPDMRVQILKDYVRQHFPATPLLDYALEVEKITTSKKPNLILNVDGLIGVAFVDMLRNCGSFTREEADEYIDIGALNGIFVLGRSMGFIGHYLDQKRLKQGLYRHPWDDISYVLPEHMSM
Method: Compounds of the present invention were evaluated in an ACLY Coupled Assay.
The assay protocol for the Coupled Assay (below) was followed:
b) Add 1 μL cpds to 96 assay plate, Test cpd conc: 100/30/10 μM top dose, 3 folds dilution, 10+0+control (control: buffer without ACL+DMSO) points, 1000 rpm for 1 min, incubation at 25° C. for 60 min
[3] abbreviates: read-out: ACL-ADP-Glo (IC50), 3 nM ACL, 15 μM ATP, 3 μM CoA, 300 μM Citrate.
[4] abbreviates: read-out: ACL-MDH Coupled Assay (IC50), 8 nM ACL, 60 μM CoA Na2, 85 μM Citrate, 250 μM ATP, 250 μM NADH.

On to `Cc1cc(C)cc(S(=O)(=O)Nc2cc(-c3ccccc3)ccc2C(=O)O)c1` [I-232, 3-((3,5-dimethylphenyl)sulfonamido)-[1,1′-biphenyl]-4-carboxylic acid], for which the IC50 against ACL [1] was in the range of 500 to 20000 nM; at ACL [2], 500 to 30000 nM.
Turning to `O=C(O)c1ccc(-c2cccs2)cc1NS(=O)(=O)c1cc(Cl)cc(C(F)(F)F)c1` [I-366, 2-((3-chloro-5-(trifluoromethyl)phenyl)sulfonamido)-4-(thiophen-2-yl)benzoic Acid], the IC50 at ACL [1] and at ACL [2] was 50 to 500 nM throughout.
In the case of `Cn1ccnc1-c1cc(Cl)c(O)c(S(=O)(=O)Nc2cc(-c3ccccc3)ccc2O)c1` [I-133, 3-chloro-2-hydroxy-N-(4-hydroxy-[1,1′-biphenyl]-3-yl)-5-(1-methyl-1H-imidazol-2-yl)benzenesulfonamide], the values for the half-inhibitory concentration (IC50) at ACL [1] and against ACL [2] were 50 to 500 nM and 500 to 30000 nM, respectively.
Take `COC(=O)c1cc(Br)cc(S(=O)(=O)Nc2cc(-c3ccccc3)ccc2C(=O)O)c1` [I-295, 3-((3-bromo-5-(methoxycarbonyl)phenyl)sulfonamido)-[1,1′-biphenyl]-4-carboxylic Acid]: the results for the IC50 against ACL [1] and against ACL [2] were 500 to 20000 nM and 500 to 30000 nM, respectively.
For the molecule `O=C(c1cc(Cl)c(O)c(S(=O)(=O)Nc2cc(-c3ccccc3)cc(F)c2F)c1)N1CCCC1` [I-159, 3-chloro-N-[4,5-difluoro-[1,1-biphenyl]-3-yl]-2-hydroxy-5-(pyrrolidine-1-carbonyl)benzene-1-sulfonamide], the concentration for half-maximal inhibition (IC50) on ACL [1] (setting [3]) and at ACL [2] (setting [4]) was less than 50 nM each time.
In the case of `CC(=O)NCCOC(=O)c1cc(Cl)c(O)c(S(=O)(=O)Nc2cc(-c3ccccc3)c(F)cc2F)c1` [I-112, 2-acetamidoethyl 3-chloro-5-(N-(4,6-difluoro-[1,1′-biphenyl]-3-yl)sulfamoyl)-4-hydroxybenzoate], the IC50 on ACL [1] (setting [3]) is less than 50 nM; on ACL [2] it was 50 to 500 nM.
In the case of `O=C(Nc1cc(-c2ccccc2)c(F)cc1F)c1cc(Br)cc(Cl)c1O` [I-139, 5-bromo-3-chloro-N-(4,6-difluoro-[1,1′-biphenyl]-3-yl)-2-hydroxybenzamide], the IC50 was 500 to 20000 nM at ACL [1] and 500 to 30000 nM against ACL [2].
The matching figures for `O=C(O)c1cc(Cl)c(O)c(S(=O)(=O)Nc2cc(-c3ccccc3)cc(F)c2F)c1` [I-115, 3-chloro-5-[(2,3-difluoro-5-phenylphenyl)sulfamoyl]-4-hydroxybenzoic Acid]: 500 to 20000 nM and 500 to 30000 nM.
On to `O=c1[nH]cc(Cl)cc1S(=O)(=O)Nc1cc(-c2cc3ccccc3s2)ccc1F` [I-367, N-(5-(benzo[b]thiophen-2-yl)-2-fluorophenyl)-5-chloro-2-oxo-1,2-dihydropyridine-3-sulfonamide], for which the figures for the IC50 against ACL [1] and on ACL [2] were 500 to 20000 nM and 500 to 30000 nM, respectively.
With `O=C(c1cc(Cl)c(O)c(S(=O)(=O)Nc2cc(-n3nccn3)ccc2F)c1)N1CCC1` [I-241, 5-(azetidine-1-carbonyl)-3-chloro-N-(2-fluoro-5-(2H-1,2,3-triazol-2-yl)phenyl)-2-hydroxybenzenesulfonamide], the concentration for half-maximal inhibition (IC50) on ACL [1] was 50 to 500 nM; at ACL [2], 500 to 30000 nM.
On to `NC1CN(C(=O)c2cc(Cl)c(O)c(S(=O)(=O)Nc3cc(-c4cc5ccccc5s4)c(F)cc3F)c2)C1` [I-282, 5-(3-aminoazetidine-1-carbonyl)-N-(5-(benzo[b]thiophen-2-yl)-2,4-difluorophenyl)-3-chloro-2-hydroxybenzenesulfonamide], for which the IC50 at ACL [1] (setting [3]) and at ACL [2] (setting [4]) was less than 50 nM in each case.
As for `O=C(O)c1ccc(F)c(NS(=O)(=O)c2cc(Cl)cc(Cl)c2O)c1` [I-12, 3-((3,5-dichloro-2-hydroxyphenyl)sulfonamido)-4-fluorobenzoic Acid], the IC50 against ACL [1] was 500 to 20000 nM; at ACL [2] it was 500 to 30000 nM.
For `O=C(c1cc(Cl)c(O)c(S(=O)(=O)Nc2cc(-c3ccccc3)c(F)cc2F)c1)N1CCCCC1` [I-102, 3-chloro-N-(2,4-difluoro-5-phenylphenyl)-2-hydroxy-5-[(piperidin-1-yl)carbonyl]benzene-1-sulfonamide], the IC50 at ACL [1] was in the range of 50 to 500 nM; against ACL [2] it was 500 to 30000 nM.
As for `COC(=O)c1cc(Cl)c(O)c(S(=O)(=O)Nc2ccc(F)cc2F)c1` [I-74, Methyl 3-chloro-5-(N-(2,4-difluorophenyl)sulfamoyl)-4-hydroxybenzoate], the IC50 against ACL [1] is 50 to 500 nM; against ACL [2], 500 to 30000 nM.
Taken in the same sequence, the figures for `O=C(O)c1cc(Cl)c(O)c(S(=O)(=O)Nc2cc(-c3ccccc3)c(F)cc2F)c1` [I-95, 3-chloro-5-(N-(4,6-difluoro-[1,1′-biphenyl]-3-yl)sulfamoyl)-4-hydroxybenzoic Acid] were 50 to 500 nM and 50 to 500 nM.
Taken in the same sequence, the figures for `CC(=O)NC1CN(C(=O)c2cc(Cl)c(O)c(S(=O)(=O)Nc3cc(-c4ccccc4)c(F)cc3F)c2)C1` [I-162, N-[1-[3-chloro-5-([4,6-difluoro-[1,1-biphenyl]-3-yl]sulfamoyl)-4-hydroxybenzoyl]azetidin-3-yl]acetamide] were 50 to 500 nM and 500 to 30000 nM.
As to `CC(C)C(=O)Oc1c(Cl)cc(C(=O)N2CCC2)cc1S(=O)(=O)Nc1cc(-c2ccccc2)c(F)cc1F` [I-158, 4-(azetidine-1-carbonyl)-2-chloro-6-([4,6-difluoro-[1,1-biphenyl]-3-yl]sulfamoyl)phenyl 2-methylpropanoate], the IC50 against ACL [1] and on ACL [2] was 50 to 500 nM throughout.
As for `CNC(=O)c1cc(Cl)c(O)c(S(=O)(=O)Nc2cc(-c3ccccc3)ccc2OC)c1` [I-66, 3-chloro-4-hydroxy-5-[(2-methoxy-5-phenylphenyl)sulfamoyl]-N-methylbenzamide], the concentration for half-maximal inhibition (IC50) lay in the range of 50 to 500 nM on ACL [1] and 500 to 30000 nM against ACL [2].
Consider `O=C(c1cc(Cl)c(O)c(S(=O)(=O)Nc2cc(-c3ccccc3)c(F)cc2F)c1)N1CC[C@@H](O)C1` [I-106, (R)-3-chloro-N-(4,6-difluoro-[1,1′-biphenyl]-3-yl)-2-hydroxy-5-(3-hydroxypyrrolidine-1-carbonyl)benzenesulfonamide], for which the results for the IC50 at ACL [1] (setting [3]) and against ACL [2] were less than 50 nM and 50 to 500 nM, respectively.
For the molecule `COc1ccc(-c2ccccc2)cc1NS(=O)(=O)c1cccc(-c2nn[nH]n2)c1` [I-19, N-(4-methoxy-[1,1′-biphenyl]-3-yl)-3-(2H-tetrazol-5-yl)benzenesulfonamide], the IC50 is 500 to 20000 nM against ACL [1] and 500 to 30000 nM on ACL [2].
For `O=C(c1cc(Cl)c(O)c(S(=O)(=O)Nc2cc(-c3ccccc3)c(F)cc2F)c1)N1CC[C@H](O)C1` [I-105, (S)-3-chloro-N-(4,6-difluoro-[1,1′-biphenyl]-3-yl)-2-hydroxy-5-(3-hydroxypyrrolidine-1-carbonyl)benzenesulfonamide], the IC50 at ACL [1] (setting [3]) and at ACL [2] (setting [4]) was less than 50 nM in each case.
As for `O=C(c1cc(Cl)c(O)c(S(=O)(=O)Nc2cc(-c3ccccc3)c(F)cc2F)c1)N1CC(F)C1` [I-130, 3-chloro-N-(4,6-difluoro-[1,1′-biphenyl]-3-yl)-5-(3-fluoroazetidine-1-carbonyl)-2-hydroxybenzenesulfonamide], the IC50 on ACL [1] (setting [3]) and on ACL [2] (setting [4]) was less than 50 nM each time.
For `O=C(O)c1ncc(-c2ccccc2)cc1NS(=O)(=O)c1cc(Cl)cc(Cl)c1` [I-243, 3-((3,5-dichlorophenyl)sulfonamido)-5-phenylpicolinic Acid], the values for the IC50 on ACL [1] and against ACL [2] were 500 to 20000 nM and 500 to 30000 nM, respectively.
As to `O=C(c1cc(Cl)c(O)c(S(=O)(=O)Nc2cc(-c3ccccc3)c(F)cc2F)c1)N1Cc2ccccc2C1` [I-100, 3-chloro-N-(4,6-difluoro-[1,1′-biphenyl]-3-yl)-2-hydroxy-5-(isoindoline-2-carbonyl)benzenesulfonamide], the IC50 against ACL [1] is 50 to 500 nM; at ACL [2] it was 500 to 30000 nM.
As for `CC(C)NC(=O)c1cc(Cl)c(O)c(S(=O)(=O)Nc2cc(-c3ccccc3)c(F)cc2F)c1` [I-93], the IC50 was less than 50 nM on ACL [1] (setting [3]) and 50 to 500 nM against ACL [2].
As to `CC(C)n1c(NS(=O)(=O)c2cc(Cl)cc(Cl)c2O)c(-c2ccc(F)cc2)c2ccccc21` [I-134, 3,5-dichloro-N-(3-(4-fluorophenyl)-1-isopropyl-1H-indol-2-yl)-2-hydroxybenzenesulfonamide], the IC50 against ACL [1] fell in the range of 500 to 20000 nM; against ACL [2] it was 500 to 30000 nM.
As to `COc1ccc(-c2cccnc2)cc1NS(=O)(=O)c1cc(Cl)cc(Cl)c1O` [I-7, 3,5-dichloro-2-hydroxy-N-(2-methoxy-5-(pyridin-3-yl)phenyl)benzenesulfonamide], the results for the IC50 on ACL [1] and on ACL [2] were 500 to 20000 nM and 500 to 30000 nM, respectively.
With `C[C@@]1(O)CCN(C(=O)c2cc(Cl)c(O)c(S(=O)(=O)Nc3cc(-c4ccccc4)c(F)cc3F)c2)C1` [I-148, (R)-3-chloro-N-(4,6-difluoro-[1,1′-biphenyl]-3-yl)-2-hydroxy-5-(3-hydroxy-3-methylpyrrolidine-1-carbonyl)benzenesulfonamide], the IC50 at ACL [1] (setting [3]) and on ACL [2] (setting [4]) was less than 50 nM throughout.
Turning to `N#Cc1cc(Cl)cc(S(=O)(=O)Nc2cc(-c3ccccc3)ccc2C(=O)O)c1` [I-226, 3-((3-chloro-5-cyanophenyl)sulfonamido)-[1,1′-biphenyl]-4-carboxylic acid], the IC50 against ACL [1] lay within 500 to 20000 nM; at ACL [2], 500 to 30000 nM.
As for `O=S(=O)(Nc1cc(-c2ccccc2)c(F)cc1F)c1cc(-c2nnn[nH]2)cc(Cl)c1O` [I-269, 3-chloro-N-[4,6-difluoro-[1,1-biphenyl]-3-yl]-2-hydroxy-5-(1H-1,2,3,4-tetrazol-5-yl)benzene-1-sulfonamide], the IC50 on ACL [1] fell in the range of 500 to 20000 nM; on ACL [2], 500 to 30000 nM.
For the molecule `O=C(O)c1cc(Cl)c(O)c(S(=O)(=O)Nc2cc(-c3cccs3)c(F)cc2F)c1` [I-248, 3-chloro-5-[[2,4-difluoro-5-(thiophen-2-yl)phenyl]sulfamoyl]-4-hydroxybenzoic Acid], the IC50 against ACL [1] was in the range of 500 to 20000 nM; on ACL [2] it was 500 to 30000 nM.
`O=C(O)c1ccc(-c2cc3ccccc3s2)cc1NS(=O)(=O)c1cc(Cl)cc(C(F)(F)F)c1` [I-294, 4-(benzo[b]thiophen-2-yl)-2-((3-chloro-5-(trifluoromethyl)phenyl)sulfonamido)benzoic Acid]: the IC50 is 500 to 20000 nM on ACL [1] and 500 to 30000 nM against ACL [2].

(Values after patent publication US11555012B2 (Nimbus Artemis, Inc., priority 2018, dated 2023).)
